Experiment [1] deals with angiotensin II pressor response. As to the kind of experiment: Inhibition of pressor response to angiotensin II in conscious rats. Format: in vivo. The following applies: Rattus norvegicus, intravenous, read-out: ED50, dose producing 50% inhibition of the control response to angiotensin II. The protocol: Rats are prepared with indwelling femoral arterial and venous catheters and a stomach tube (Gellai, et al., Kidney Int. 15:419, 1979). Two to three days following surgery the rats are placed in restrainers and blood pressure is continuously monitored from the arterial catheter with a pressure transducer and recorded on a polygraph. The change in mean arterial pressure in response to intravenous injections of […] angiotensin II is compared at various time points prior to and following the administration of the compounds intravenously at doses of 0.1 to 300 mg/kg. The dose of compound needed to produce 50% inhibition of the control response to angiotensin II (ED50) is used to estimate the potency of the compounds. The ED50 of compound B is about 30 mg/kg.

For experiment [2], the system named is mean arterial blood pressure. As to the kind of experiment: Antihypertensive activity in conscious spontaneously hypertensive (SHR) rats. Format: in vivo. The following applies: Rattus norvegicus, intravenous, read-out: ED25, dose needed to reduce mean arterial pressure by 25 mm Hg. The protocol:
The antihypertensive activity of the compounds is measured by their ability to reduce mean arterial blood pressure in conscious, spontaneously hypertensive (SHR) rats. The animals are prepared with indwelling vascular catheters are described above (A) for the administration of compounds and direct recording of blood pressure. After complete recovery from surgery (4-5 days), the rats are placed into retainers to which they have become accustomed. Mean arterial pressure is recorded continuously prior to and following the intravenous administration of compounds. The dose of compound needed to reduce mean arterial pressure by 25 mm Hg (ED25) is used as an estimate of potency. The ED25 for compound B is about 15mg/kg.

The test system of another experiment is TNF. The experiment can be described thus: Endotoxic shock model: TNF production and survival in endotoxin-treated rats. Type of experiment: in vivo, rat. The source says:
6, 1991 and in Hanna, Patent Cooperation Treaty Application Number WO 90/15534, published Dec. 27, 1990.

Another experiment has as its system rabbit aortic strip. As to the kind of experiment: Inhibition of PDBu-induced contraction of rabbit aortic strip. Format: cell-based. The following applies: Oryctolagus cuniculus; PDBu as agonist. The source says:
The effect of compounds of Formula (I) in this assay is examined using the protocol in Ohlstein, et al., J. Pharm. Exp. Ther., 250:548 (1989), except PDBu and compound B are substituted in place of the agonist and antagonist, respectively, therein described.

Experiment [3] deals with rat cerebellar granule cells. The experiment can be described thus: Inhibition of glutamate-induced neurotoxicity in rat cerebellar granule cells. Format: cell-based. The source says: The effect of compounds of Formula (I) in this assay is examined using the protocol in Lysko, et al, Brain Research, 499:258 (1989).
In a further experiment the test system is HIV-infected cells. The experiment can be described thus: HIV syncytial assay. Format: cell-based. The following applies: syncytial co-cultivation assay. The protocol: Chronically infected cells are employed as cell fusion centers in a rapid syncytial co-cultivation assay with uninfected […] target cells. Syncytia develop overnight, in contrast to the 3 to 7 days required for the cytopathic effect to occur in similar cultures infected with cell-free virus preparations. Inhibition of fusion by soluble CD4 and other potential anti-HIV compounds is assessed using the assay described by Truneh, et al., Cellular Immunology, 131:98 (1990).

Another experiment deals with hindpaw inflammation. As to the kind of experiment: Adjuvant-induced arthritis in Lewis rats. Type of experiment: in vivo. The following applies: Rattus norvegicus, ip; AA Lewis rats, daily intraperitoneal administration; read-out: ED50, suppression of hindpaw inflammation. The protocol:
Adjuvant-induced arthritis (AA) was produced in Lewis rats by a single intradermal injection of 0.75 mg of Mycobacterium butyricum in light paraffin oil, into the base of the tail. The adjuvant arthritis occurs after a delay of approximately 10 days and is characterized by inflammation of the hindpaws. In prophylatic studies, compounds were administered daily for 5 days, beginning on the sixth day after adjuvant injection. Hindpaw volumes were measured plethysmographically on days 14, 17 and 20. [formula]
Daily intraperitoneal administration of compound B to AA rats produced a marked, dose related suppression of hindpaw inflammation with an ED50 of <10 mg/kg.

The subject of the next experiment is platelets. As to the kind of experiment: Inhibition of PDBu-induced serotonin release from platelets. Format: cell-based. The source says:
The effect of compounds of Formula (I) in this assay is examined using the protocol in Sano, et al., J. Biol. Chem., 258:2010 (1983).

For a further experiment, the system named is Jurkat cells. As to the kind of experiment: Inhibition of PHA and ionophore-induced IL-2 production in Jurkat cells. Type of experiment: cell-based. The following applies: Homo sapiens, IL-2 ELISA. The protocol:
IL-2 produced in response to PHA and ionophore in the absence or presence of compound B is assayed by an ELISA kit purchased from Advanced Magnetics, Cambridge, MA (Human 1L-2-specific ELISA). The procedure is described by Moriya, N., Journal of Immunoassay, 8:131 (1987) and Robb, R., Hunam, J., Methods in Enzymology: Immunochemical Techniques, Section H (G.Disagato, J. Langone, and H. vanVanakis, eds.: Academic Press, N.Y., vol. 116, p. 493. 1985).
(In general: An ELISA detects its analyte on a solid surface through an enzyme-linked reagent.)

A value given as a limit tells only on which side of the number the result lay.

These results are taken from US5565448A, “Medicament” (SmithKline Beecham Corporation, priority 1994, dated 1996).

In general, ED50 refers to the midpoint of the dose-response relation. What is called IC50 is the concentration needed to halve the response being measured. Low values mean greater potency, high ones weaker potency.

With `NC1=NC(=O)/C(=C2\CCNC(=O)c3[nH]c(Br)cc32)N1` [Compound B, 4-(2-amino-4-oxo-2-imidazolin-5-ylidene)-2-bromo-4,5,6,7-tetrahydropyrrolo(2,3-c)azepine-8-one], the results for the ED50 (in [1]; in the experiment on hindpaw inflammation) were roughly 30 mg/kg and less than 10 mg/kg, respectively. The ED (25 mm Hg) in [2] was roughly 15 mg/kg. Moreover, the “Inhibition of the production of TNF” value with TNF is “inhibited the production of TNF”. The “Survival rate of animals with endotoxic shock” value with TNF was “increased the survival rate”. Besides, the IC50 was 500 to 800 nM in the experiment on rabbit aortic strip, roughly 600 nM in [3] and roughly 2000 nM with Jurkat cells. Moreover, the “Inhibition of fusion of HIV-infected cells to CD4-positive, uninfected cells” value with HIV-infected cells is “inhibited the fusion”. Further, the “Inhibition of PDBu-induced serotonin release from platelets” value with platelets was “showed inhibition”.
